Experimental data published in US11279733B2, “Peptide antibiotics” (priority 2017, dated 2022).
Converted amounts (≈) assume the structure as drawn. Positions of bridges follow the written chain, without caps; N, C: chain ends. Non-standard residues stand in square brackets, D forms with d. Residues, ends and D or L forms follow the SMILES beside them. *: point of attachment. Decanoyl(3R-OH) = CCCCCCC[C@@H](O)CC(=O)*; dBip = N[C@H](Cc1ccc(-c2ccccc2)cc1)C(=O)O; dDab = NCC[C@@H](N)C(=O)O; Dab = NCC[C@H](N)C(=O)O; Dap = NC[C@H](N)C(=O)O

Experiments:
[1] = In vitro nephrotoxicity, GGT release from primary human kidney cells; format: cell-based; conditions: pH 7.4
Description: (§1) hPT cells were derived from whole human kidneys procured by the International Institute for the Advancement of Medicine (Edison, N.J., USA). All tissue was scored by a pathologist as normal (i.e., derived from non-cancerous, non-diseased tissue). Cell isolation procedures were based on those originally described by Todd et al. (1996) and modified (Cummings and Lash, 2000; Cummings et al., 2000) with use of sterile conditions (i.e., all instruments and glassware were autoclaved and all buffers were filtered through a 0.2-μm pore-size filter). Renal cortex and outer stripe were cut into slices, washed with sterile PBS, minced, and the pieces were placed in a trypsinization flask filled with 300 ml of sterile, filtered Hanks' buffer, containing 25 mM NaHCO3, 25 mM HEPES, pH 7.4, 0.5 mM EGTA, 0.2% (w/v) bovine serum albumin, 50 μg/ml gentamicin, 1.3 mg/mL collagenase, and 0.59 mg/ml CaCl2), which was filtered prior to use. Whole kidneys were perfused with Wisconsin medium and kept on ice until they arrived at the laboratory, which was usually within 24 h of removal from the donor.
(§2) All buffers were continuously bubbled with 95% O2/5% CO2 and were maintained at 37° C. Minced cortical pieces from whole kidneys were subjected to collagenase digestion for 60 min, after which the supernatant was filtered through a 70-μm mesh filter to remove tissue fragments, centrifuged at 150×g for 7 min, and the pellet resuspended in Dulbecco's Modified Eagle's Medium: Ham's F12 Medium (DMEM/F12; 1/1). Approximately 5 to 7×10^6 cells were obtained per 1 g of human kidney cortical tissue.
(§3) hPT cells were resuspended in 2 mL of DMEM/F12 and diluted to 500 mL with cell culture medium, which was serum-free and hormonally-defined. Composition of this supplemented medium was based on earlier work establishing optimal conditions for primary culture of rat PT cells (Lash et al., 1995). Basal medium was a 1:1 mixture of DMEM/F12. […] Cells were seeded in a volume of 0.5 ml at a density of 50-100 μg protein per cm^2 (0.5-1.0×10^6 cells/ml) on 24-well plates. Cultures were grown at 37° C. in a humidified incubator under an atmosphere of 95% air/5% CO2 at pH 7.4. Cultures were grown to approximately 80%-90% confluence (generally 5-6 days) prior to experiments. Cells were harvested by either scraping the flasks with a Teflon scraper or by brief incubation with Cellstripper (Cellgro, Herndon, Va., USA) (in Ca^2+- and Mg^2+-free Hanks' buffer).
Release of gamm-glutanyltransferase was assessed according to Orlowski, M., Meister, A. 1963. γ-Glutamyl-p-nitroanilide: A new convenient substrate for determination and study of L- and D-γ-glutamyltranspeptidase activities (Biochim. Biophys. Acta 73: 679-681.)
A 2.5 mM substrate Solution was prepared from 67 mg γ-glutamyl-p-nitroanilide+264 mg glycylglycine in 100 mL of 0.05 M Tris, pH 8.2 (50 mM Tris, pH 8.2: 605 mg Tris/HCl per 100 mL).
For the assay in 96-well plates, 6-μL of sample and 0.3 mL substrate solution were added to each well. The absorbance was measured at 410 nm for the appearance of product, p-nitroanilide (molar extinction=8800 M^−1 cm^−1).

[2] = In vitro nephrotoxicity, LDH release from primary human kidney cells; format: cell-based; conditions: pH 7.4
Description: as §1, §2, §3

[3] = test system: P. aeruginosa GN_105, PmxR; conditions: GN 105, PmxR
Method in brief: (§4)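 Mid-log cultures grown in Mueller Hinton broth at 37° C were tested by 2-fold broth microdilution at 5×10^5 CFU/mL final. Compounds were dissolved in water and tested over a final range of 32 to 0.015 μg/mL.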

[4] = test system: K. pneumoniae GN_106, PmxR; conditions: GN 106, PmxR
Method in brief: as §4

[5] = test system: S. aureus ATCC 25923, MSSA; conditions: ATCC 25923
Method in brief: as §4

[6] = test system: K. pneumoniae ATCC BAA-2146, NDM-1 pos; conditions: ATCC BAA-2146
Method in brief: as §4

A. baumannii ATCC 19606 = conditions: ATCC 19606
Method in brief: as §4

A. baumannii GN_093 PmxR = conditions: GN 093 PmxR
Method in brief: as §4

E. coli ATCC 25922 = conditions: ATCC 25922
Method in brief: as §4

[7] = test system: K. pneumoniae GN_102 PmxR; conditions: GN 102 PmxR
Method in brief: as §4

K. pneumoniae ATCC 13883 = conditions: ATCC 13883
Method in brief: as §4

[8] = test system: P. aeruginosa GN_043, PmxR; conditions: polymyxin-resistant
Method in brief: as §4

P. aeruginosa ATCC 27853 = conditions: ATCC 27853
Method in brief: as §4

[9] = test system: K. pneumoniae ATCC 700603, MDR; conditions: ATCC 700603
Method in brief: as §4

In the case of `CCCCCCC[C@@H](O)CC(=O)N[C@H](CCN)C(=O)N[C@H]1CCNC(=O)[C@H](CC(C)C)NC(=O)[C@H](CCN)NC(=O)[C@H](CCN)NC(=O)[C@H](CC(C)C)NC(=O)[C@@H](Cc2ccccc2)NC(=O)[C@H](CCN)NC1=O` [Octapeptin C4, octapeptin C4, reference compound] ({Decanoyl(3R-OH)}-[dDab][Dab][Dab][dF]L[Dab][Dab]L; lactam 2-C), the CC50 [1] is reported as > 128 µg/mL and the CC50 [2] is reported as 62 µg/mL (≈ 59.4 µM).

In the case of `CCCCCCC[C@@H](O)CC(=O)N[C@H](CCN)C(=O)N[C@H]1CCNC(=O)[C@H](CC(C)C)NC(=O)[C@H](CCN)NC(=O)[C@H](CCCCN)NC(=O)[C@H](CC(C)C)NC(=O)[C@@H](Cc2ccccc2)NC(=O)[C@H](CCN)NC1=O` [compound 992, 3(R)OH-nC9CO-D-Dab-cyc[L-Dab-L-Dab-D-Phe-L-Leu-L-Lys-L-Dab-L-Leu]] ({Decanoyl(3R-OH)}-[dDab][Dab][Dab][dF]LK[Dab]L; lactam 2-C), the CC50 [1] is reported as > 128 µg/mL, the “MIC, P. aeruginosa PA9704, PmxR” value [3] is reported as 4 µg/mL (≈ 3.73 µM) and the “MIC, K. pneumoniae Cl 138-16347-20362, PmxR” value [4] is reported as 4 µg/mL (≈ 3.73 µM). For the same compound, the “MIC, S. Aureus ATCC 25923, MSSA” value [5] was 16 µg/mL (≈ 14.9 µM), the “MIC, K. pneumoniae ATCC BAA-2146, NDM-1 pos” value [6] was 2 µg/mL (≈ 1.86 µM) and the “MIC, A. baumannii ATCC 19606” value (A. baumannii ATCC 19606) was 2 µg/mL (≈ 1.86 µM). For the same compound, the “MIC, A. baumannii Cl Ptyela 10073 4512:2, PmxR” value (A. baumannii GN_093 PmxR) was 8 µg/mL (≈ 7.46 µM), the “MIC, E. coli ATCC 25922” value (E. coli ATCC 25922) was 2 µg/mL (≈ 1.86 µM) and the “MIC, K. pneumoniae Cl Koprana 10065 0661:1, PmxR” value [7] was 4 µg/mL (≈ 3.73 µM). For the same compound, the “MIC, K. pneumoniae ATCC 13883” value (K. pneumoniae ATCC 13883) was 2 µg/mL (≈ 1.86 µM), the “MIC, P. aeruginosa FADDI-PA070, PmxR” value ([8]; Table 5) was 2 µg/mL (≈ 1.86 µM) and the “MIC, P. aeruginosa ATCC 27853” value (P. aeruginosa ATCC 27853) was 2 µg/mL (≈ 1.86 µM). The “MIC, K. pneumoniae ATCC 700603, MDR” value [9] was 2 µg/mL (≈ 1.86 µM) and the CC50 [2] was 114 µg/mL (≈ 106 µM).

With `CCCCCCC[C@@H](O)CC(=O)N[C@H](CCN)C(=O)N[C@H]1CCNC(=O)[C@H](CC(C)C)NC(=O)[C@H](CN)NC(=O)[C@H](CCN)NC(=O)[C@H](CC(C)C)NC(=O)[C@@H](Cc2ccc(-c3ccccc3)cc2)NC(=O)[C@H](CCN)NC1=O` [compound 5383, 3(R)OH-nC9CO-D-Dab-cyc[L-Dab-L-Dab-D-Bip-L-Leu-L-Dab-L-Dap-L-Leu]] ({Decanoyl(3R-OH)}-[dDab][Dab][Dab][dBip]L[Dab][Dap]L; lactam 2-C) the CC50 [1] was > 128 µg/mL, the “MIC P. aeruginosa GN_105, PmxR” value [3] was 2 µg/mL (≈ 1.81 µM) and the “MIC K. pneumoniae GN_106, PmxR” value [4] was 8 µg/mL (≈ 7.23 µM). The “MIC S. aureus ATCC 25923, MSSA” value [5] was 2 µg/mL (≈ 1.81 µM), the “MIC K. pneumoniae ATCC BAA-2146, NDM-1 pos” value [6] was 4 µg/mL (≈ 3.62 µM) and the “MIC A. baumannii ATCC 19606” value (A. baumannii ATCC 19606) was 4 µg/mL (≈ 3.62 µM). The “MIC A. baumannii GN_093 PmxR” value (A. baumannii GN_093 PmxR) was 4 µg/mL (≈ 3.62 µM), the “MIC E. coli ATCC 25922” value (E. coli ATCC 25922) was 4 µg/mL (≈ 3.62 µM) and the “MIC K. pneumoniae GN_102 PmxR” value [7] was 8 µg/mL (≈ 7.23 µM). The “MIC K. pneumoniae ATCC 13883” value (K. pneumoniae ATCC 13883) was 4 µg/mL (≈ 3.62 µM), the “MIC P. aeruginosa GN_043, PmxR” value [8] was 2 µg/mL (≈ 1.81 µM) and the “MIC P. aeruginosa ATCC 27853” value (P. aeruginosa ATCC 27853) was 2 µg/mL (≈ 1.81 µM). The “MIC K. pneumoniae ATCC 700603, MDR” value [9] was 4 µg/mL (≈ 3.62 µM) and the CC50 [2] was > 128 µg/mL.
